Measured values reported in patent US4801596A, “Nitroxy amino propanols for treating heart and circulatory diseases” (Boehringer Mannheim GmbH, priority 1984, dated 1989).
Counter-ions that a name gives are not always drawn.

How the values were obtained:
[1] = tested on: rat livers; assay: denitration rate in re-perfused rat livers (nitrate-like action); details: rat liver re-perfused 4 min, equimolar 5×10^-5 M/l; freed NO2 determined in the perfusate; high values = fast denitration
[2] = tested on: β-receptor; assay: β-blocking effectiveness: inhibition of isoprenaline-induced increase of the frequency in rabbits; assay type: in vivo, rabbit; details: i.v., isoprenaline 1 mcg/kg i.v.

SMILES	Vrel (denitration rate in relation to isosorbide-5-mononitrate) [1]	ID 50 fcor (dose causing 50% inhibition of the increase of the frequency through isoprenaline) [2]
CC(C)(C)NCC(O)COc1ccc(NC(=O)[C@H]2CC[C@H](O[N+](=O)[O-])CC2)cc1 (relative stereo) [2 (e), 1-[4-[[(t-4-nitroxy)-cyclohexyl]-r-1-carbonylamino]]-phenoxy-3-tert.-butylaminopropan-2-ol hydrochloride]	0.95	4 006 mcg/kg
CC(C)(C)NCC(O)COc1ccc(NC(=O)C[C@@H]2CCCC[C@H]2O[N+](=O)[O-])cc1 (relative stereo) [2 (g), 1-[4-[[(t-2-nitroxy)-cyclohexyl]-r-1-methylcarbonylamino] ]-phenoxy-3-tert.-butylaminopropan-2-ol hydrochloride]	0.97	4 158 mcg/kg
CC(C)(C)NCC(O)COc1ccc(NC(=O)[C@H]2CC[C@H](O[N+](=O)[O-])CC2)cc1C#N (relative stereo) [4 (c), 1-[2-cyano-4-[[(t-4-nitroxy)-cyclohexyl]-r-1-carbonylamino]]-phenoxy-3-tert.-butylaminopropan-2-ol benzoate]	1.95	
CC(=O)c1cc(NC(=O)[C@H]2CC[C@H](O[N+](=O)[O-])CC2)ccc1OCC(O)CNC(C)(C)C (relative stereo) [6 (c), 1-[2-methylcarbonyl-4-[[(t-4-nitroxy)-cyclohexyl]-r-1-carbonylamino]]-phenoxy-3-tert.-butylaminopropan-2-ol hydrochloride]	1.34	2 273 mcg/kg
CC(C)(C)NCC(O)COc1ccc(CC(=O)N[C@@H]2CCCC[C@H]2O[N+](=O)[O-])cc1 (relative stereo) [9 (d), trans-1-[4-[(2-nitroxycyclohexyl)-amino]-carbonylmethyl]-phenoxy-3-tert.-butylaminopropan-2-ol]	1.06	
CC(C)(C)NCC(O)COc1ccc(NC(=O)CCCCO[N+](=O)[O-])cc1 (centres unmarked) [2 (a), 1-[4-(4-nitroxybutyl)-carbonylamino]-phenoxy-3-tert.-butylaminopropan-2-ol fumarate]	0.65	
CC(C)(C)NCC(O)COc1ccc(NC(=O)C(C)(C)CO[N+](=O)[O-])cc1 (centres unmarked) [2 (b), 1-[4-(2-methyl-1-nitroxy-2-propyl)-carbonylamino]-phenoxy-3-tert.-butylaminopropan-2-ol hydrochloride]	0.68	4 164 mcg/kg
CC(C)(C)NCC(O)COc1ccc(NC(=O)CCCO[N+](=O)[O-])cc1C#N (centres unmarked) [4 (a), 1-[2-cyano-4-(3-nitroxypropyl)-carbonylamino]-phenoxy-3-tert.-butylaminopropan-2-ol hydrochloride]	0.74	180 µg/kg
CC(=O)c1cc(NC(=O)CCCO[N+](=O)[O-])ccc1OCC(O)CNC(C)(C)C (centres unmarked) [6 (a), 1-[2-methylcarbonyl-4-(3-nitroxypropyl)-carbonylamino]-phenoxy-3-tert.-butylaminopropan-2-ol fumarate]	0.51	886 µg/kg
CC(CNC(=O)Cc1ccc(OCC(O)CNC(C)(C)C)cc1)O[N+](=O)[O-] (centres unmarked) [9 (a), 1-[4-[(2-nitroxypropyl)-amino]-carbonylmethyl]-phenoxy-3-tert.-butylaminopropan-2-ol hemifumarate]	0.34	3 147 mcg/kg
CN(CC(C)(C)CO[N+](=O)[O-])C(=O)Cc1ccc(OCC(O)CNC(C)(C)C)cc1 (centres unmarked) [9 (c), 1-[4-[[N--(2,2-dimethyl-3-nitroxypropyl)-N--methyl]-amino]-carbonylmethyl]-phenoxy-3-tert.-butylaminopropan-2-ol fumarate]	1.63	
CC(C)(C)NCC(O)COc1ccc(CC(=O)N2CCC(O[N+](=O)[O-])CC2)cc1 (centres unmarked) [9 (f), 1-[4-(4-nitroxy-1-piperidino)-carbonylmethyl]-phenoxy-3-tert.-butylaminopropan-2-ol fumarate]	1.23	
CC(C)(C)NCC(O)COc1ccc(CC(=O)N2CCCC(CO[N+](=O)[O-])C2)cc1 (centres unmarked) [9 (g), 1-[4-(3-nitroxymethyl-1-piperidino)-carbonylmethyl]-phenoxy-3-tert.-butylaminopropan-2-ol fumarate]	1.69	
CC(C)(C)NCC(O)COc1ccc(CC(=O)N2CCC(CO[N+](=O)[O-])CC2)cc1 (centres unmarked) [9 (h), 1-[4-(4-nitroxymethyl-1-piperidino)-carbonylmethyl]-phenoxy-3-tert.-butylaminopropan-2-ol fumarate]	1.06	1 207 mcg/kg
C#CC(C)(C)NCC(O)COc1ccc(CC(=O)N2CCC(CO[N+](=O)[O-])CC2)cc1 (centres unmarked) [9 (j), 3-(2-methyl-3-butyn-2-yl)-amino-1-[4-(4-nitroxymethyl-1-piperidino)-carbonylmethyl]-phenoxypropan-2-ol fumarate]	1.94	
CC(C)(C)NCC(O)COc1ccc(NC(=O)CCCO[N+](=O)[O-])cc1 (centres unmarked) [Example 1, 1-[4-(3-Nitroxypropyl)-carbonylamino]-phenoxy-3-tert.-butylaminopropan-2-olhydrochloride]	0.77	2 326 mcg/kg
CCOC(=O)c1cc(NC(=O)CCCO[N+](=O)[O-])ccc1OCC(O)CNC(C)(C)C (centres unmarked) [Example 7, 1-[2-Ethoxycarbonyl-4-(3-nitroxypropyl)-carbonylamino]phenoxy-3-tert.-butylaminopropan-2-ol cyclamate]	1.72	1 619 mcg/kg
CC(C)(C)NCC(O)COc1ccc(CC(=O)NCCCO[N+](=O)[O-])cc1 (centres unmarked) [Example 8, 1-[4-[(3-Nitroxypropyl)-amino]-carbonylmethyl]-phenoxy-3-tert.-butylaminopropan-2-ol fumarate]	0.48	
O=[N+]([O-])O[C@@H]1CO[C@H]2[C@@H]1OC[C@@H]2O [Isosorbide-5-mononitrate, isosorbide-5-mononitrate, reference compound]	0.86	
